16 molecules from ChEMBL document CHEMBL4393689, “Discovery of fluorescent coumarin-benzo[b]thiophene 1, 1-dioxide conjugates as mitochondria-targeting antitumor STAT3 inhibitors” (Eur J Med Chem, 2019) can be followed below.

The source made the active and inactive calls. The rule behind the calls is not given here.

For series [1], the target named is Signal transducer and activator of transcription 3 (Homo sapiens) (UniProt P40763). Put plainly: Inhibition of STAT3 in human MDA-MB-231 cells assessed as decrease in STAT3-DNA binding at 4 uM incubated for 24 hrs by electrophoretic mobility shift assay. It counts as cell-based. In general terms: Mobility shift assays separate free from complexed probe on a gel.

Series [2] has as its system MDA-MB-231. Put plainly: Antiproliferative activity against human MDA-MB-231 cells assessed as reduction in cell viability incubated for 48 hrs by MTT assay. Format: functional, cell-based. To be noted: MDA-MB-231, 48 h. On the technique in general: Formazan colour is commonly taken as a measure of viable cells.
Series [3] deals with Tyrosine-protein kinase JAK2 (Homo sapiens) (UniProt O60674). Briefly: Inhibition of JAK2 in human MDA-MB-231 cells assessed as reduction in JAK2 phosphorylation at 4 uM incubated for 24 hrs by Western blot analysis. It counts as cell-based. Background: Immunoblotting shows a protein as a band on a membrane.
Series [4] in a line: Selectivity index, ratio of IC50 for human L02 cells to IC50 for human HepG2 cells. Format: toxicity. To be noted: L02 cells versus HepG2 cells, read-out: Ratio IC50.
For series [5], the target named is T1, Signal transducer and activator of transcription 1-alpha/beta (Homo sapiens) (UniProt P42224).
T1 sequence (whole entry): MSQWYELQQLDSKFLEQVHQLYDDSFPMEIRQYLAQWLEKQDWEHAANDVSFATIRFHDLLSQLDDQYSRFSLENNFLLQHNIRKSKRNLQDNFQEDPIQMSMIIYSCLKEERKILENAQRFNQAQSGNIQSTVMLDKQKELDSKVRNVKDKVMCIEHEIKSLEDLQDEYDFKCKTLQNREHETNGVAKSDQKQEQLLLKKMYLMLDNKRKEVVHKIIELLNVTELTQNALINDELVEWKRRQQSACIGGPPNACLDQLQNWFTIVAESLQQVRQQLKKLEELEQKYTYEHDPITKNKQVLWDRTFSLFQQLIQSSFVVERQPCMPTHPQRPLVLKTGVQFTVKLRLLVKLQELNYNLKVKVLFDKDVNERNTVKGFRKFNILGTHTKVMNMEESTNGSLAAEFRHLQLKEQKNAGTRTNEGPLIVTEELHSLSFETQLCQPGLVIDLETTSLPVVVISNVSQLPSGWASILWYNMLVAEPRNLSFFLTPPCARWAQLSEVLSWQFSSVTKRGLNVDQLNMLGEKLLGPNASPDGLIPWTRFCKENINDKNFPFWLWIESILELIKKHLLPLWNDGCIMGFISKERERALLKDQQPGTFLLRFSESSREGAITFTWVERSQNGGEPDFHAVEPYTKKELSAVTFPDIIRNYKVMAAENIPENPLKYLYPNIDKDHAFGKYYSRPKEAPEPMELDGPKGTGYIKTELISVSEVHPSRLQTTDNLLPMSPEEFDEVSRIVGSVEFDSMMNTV
Put plainly: Inhibition of STAT1 in human MDA-MB-231 cells assessed as decrease in STAT1 phosphorylation at Y701 residue at 4 uM incubated for 24 hrs by Western blot analysis. Format: cell-based.

A further series relates to HepG2. Put plainly: Antiproliferative activity against human HepG2 cells assessed as reduction in cell viability incubated for 48 hrs by MTT assay. It counts as functional, cell-based. The conditions noted are these: HepG2, 48 h.
The next series concerns MCF-10A. Briefly: Cytotoxicity against human MCF10A cells assessed as reduction in cell viability incubated for 48 hrs by MTT assay. It counts as cell-based.
The next series concerns L02. Put plainly: Cytotoxicity against human LO2 cells assessed as reduction in cell viability incubated for 48 hrs by MTT assay. Format: cell-based. The conditions noted are these: L02, 48 h.
Series [6] has as its target Mitogen-activated protein kinase; ERK1/ERK2 (Homo sapiens) (UniProt P27361+P28482). Briefly: Inhibition of ERK 1/2 in human MDA-MB-231 cells assessed as reduction in ERK 1/2 phosphorylation at 4 uM incubated for 24 hrs by Western blot analysis. It counts as cell-based.
Another series relates to MCF7. Briefly: Antiproliferative activity against human MCF7 cells assessed as reduction in cell viability incubated for 48 hrs by MTT assay. It counts as functional, cell-based. The conditions noted are these: MCF7, 48 h.
For series [7], the system named is MDA-MB-231. Briefly: Induction of apoptosis in human MDA-MB-231 cells assessed as increase in cleaved caspase-3 levels at 4 uM incubated for 24 hrs by Western blot analysis. Format: functional, cell-based.
Series [8] can be described thus: Selectivity index, ratio of IC50 for human MCF10A cells to IC50 for human MDA-MB-231 cells. The conditions noted are these: MCF10A cells versus MDA-MB-231 cells, read-out: Ratio IC50. It counts as toxicity.
The test system of series [9] is MDA-MB-231. Briefly: Induction of apoptosis in human MDA-MB-231 cells assessed as increase in cleaved PARP levels at 4 uM incubated for 24 hrs by Western blot analysis. It counts as functional, cell-based.
For series [10], the target named is Signal transducer and activator of transcription 3 (Homo sapiens) (UniProt P40763). Put plainly: Inhibition of STAT3 in human MDA-MB-231 cells assessed as decrease in STAT3 phosphorylation at Tyr705 residue at 4 uM incubated for 24 hrs by Western blot analysis. It counts as cell-based.
The subject of another series is HCT-116. Put plainly: Antiproliferative activity against human HCT116 cells assessed as reduction in cell viability incubated for 48 hrs by MTT assay. It counts as functional, cell-based. To be noted: HCT-116, 48 h.
The subject of series [11] is MDA-MB-231. Put plainly: Induction of apoptosis in human MDA-MB-231 cells assessed as increase in cleaved caspase-9 levels at 4 uM incubated for 24 hrs by Western blot analysis. Format: functional, cell-based.
Series [12] has as its target Proto-oncogene tyrosine-protein kinase Src (Homo sapiens) (UniProt P12931). Briefly: Inhibition of Src in human MDA-MB-231 cells assessed as reduction in Src phosphorylation at 4 uM incubated for 24 hrs by Western blot analysis. Format: cell-based.

Signal transducer and activator of transcription 3 (Homo sapiens), sequence (P40763 whole entry): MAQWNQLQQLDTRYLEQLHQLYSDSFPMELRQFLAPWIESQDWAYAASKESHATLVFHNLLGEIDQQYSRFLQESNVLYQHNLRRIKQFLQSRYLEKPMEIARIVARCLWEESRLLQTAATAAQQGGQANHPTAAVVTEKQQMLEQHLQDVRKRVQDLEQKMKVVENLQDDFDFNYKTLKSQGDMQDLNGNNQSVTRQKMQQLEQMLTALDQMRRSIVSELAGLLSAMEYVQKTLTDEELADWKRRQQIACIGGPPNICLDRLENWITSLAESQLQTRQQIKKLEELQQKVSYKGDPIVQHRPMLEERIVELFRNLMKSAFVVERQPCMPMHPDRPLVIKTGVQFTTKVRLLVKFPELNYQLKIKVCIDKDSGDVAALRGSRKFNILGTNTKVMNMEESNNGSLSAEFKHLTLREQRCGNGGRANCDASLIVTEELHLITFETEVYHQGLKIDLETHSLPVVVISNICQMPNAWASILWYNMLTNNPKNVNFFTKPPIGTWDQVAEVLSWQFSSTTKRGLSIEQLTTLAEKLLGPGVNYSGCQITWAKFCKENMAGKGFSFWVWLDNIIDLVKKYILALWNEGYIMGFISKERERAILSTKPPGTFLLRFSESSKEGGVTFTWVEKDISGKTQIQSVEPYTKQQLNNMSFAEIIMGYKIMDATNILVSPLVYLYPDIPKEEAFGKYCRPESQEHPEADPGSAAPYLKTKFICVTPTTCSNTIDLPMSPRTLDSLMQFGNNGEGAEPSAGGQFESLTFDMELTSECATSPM
Tyrosine-protein kinase JAK2 (Homo sapiens), sequence (O60674 whole entry): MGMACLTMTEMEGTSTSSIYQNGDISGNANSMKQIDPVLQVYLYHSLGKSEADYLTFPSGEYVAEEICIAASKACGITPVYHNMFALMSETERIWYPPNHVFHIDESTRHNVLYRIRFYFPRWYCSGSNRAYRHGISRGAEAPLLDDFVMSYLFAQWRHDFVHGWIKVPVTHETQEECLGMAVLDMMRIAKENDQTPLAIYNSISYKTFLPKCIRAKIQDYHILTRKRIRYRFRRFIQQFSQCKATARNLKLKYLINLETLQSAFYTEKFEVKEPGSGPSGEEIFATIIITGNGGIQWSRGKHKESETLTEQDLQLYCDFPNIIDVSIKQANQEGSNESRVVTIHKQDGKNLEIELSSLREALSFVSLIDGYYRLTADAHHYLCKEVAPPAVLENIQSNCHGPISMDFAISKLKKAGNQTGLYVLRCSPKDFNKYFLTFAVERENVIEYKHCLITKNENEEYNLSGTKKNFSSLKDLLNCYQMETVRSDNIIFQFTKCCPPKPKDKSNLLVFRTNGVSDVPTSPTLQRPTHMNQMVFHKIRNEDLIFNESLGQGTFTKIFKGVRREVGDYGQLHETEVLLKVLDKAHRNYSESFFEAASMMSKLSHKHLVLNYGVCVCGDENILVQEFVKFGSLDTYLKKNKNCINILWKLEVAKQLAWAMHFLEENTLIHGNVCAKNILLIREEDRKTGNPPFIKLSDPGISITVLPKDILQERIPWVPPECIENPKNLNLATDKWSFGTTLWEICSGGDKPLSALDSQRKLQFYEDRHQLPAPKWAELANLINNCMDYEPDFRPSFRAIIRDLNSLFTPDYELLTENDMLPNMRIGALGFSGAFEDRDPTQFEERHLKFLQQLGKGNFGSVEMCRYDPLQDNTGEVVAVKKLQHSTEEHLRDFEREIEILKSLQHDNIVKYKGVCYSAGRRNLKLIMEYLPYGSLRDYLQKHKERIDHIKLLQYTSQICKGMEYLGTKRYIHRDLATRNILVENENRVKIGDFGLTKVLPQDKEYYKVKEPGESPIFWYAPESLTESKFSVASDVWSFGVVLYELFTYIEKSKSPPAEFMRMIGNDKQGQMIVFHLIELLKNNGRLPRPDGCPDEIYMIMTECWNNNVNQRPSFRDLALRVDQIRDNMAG
Mitogen-activated protein kinase; ERK1/ERK2 (Homo sapiens), sequence (P27361 whole entry, looked up): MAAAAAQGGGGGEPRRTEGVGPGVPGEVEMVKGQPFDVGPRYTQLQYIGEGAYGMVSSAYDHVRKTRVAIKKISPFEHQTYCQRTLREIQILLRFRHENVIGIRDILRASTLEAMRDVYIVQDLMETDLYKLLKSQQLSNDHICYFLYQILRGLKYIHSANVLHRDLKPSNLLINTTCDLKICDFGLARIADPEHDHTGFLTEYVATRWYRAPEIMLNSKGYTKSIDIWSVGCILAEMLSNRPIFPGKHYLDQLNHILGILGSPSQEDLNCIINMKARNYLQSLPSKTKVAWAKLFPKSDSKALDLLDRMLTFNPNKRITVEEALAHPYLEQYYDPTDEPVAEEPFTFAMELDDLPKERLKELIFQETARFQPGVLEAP
Mitogen-activated protein kinase; ERK1/ERK2 (Homo sapiens), sequence (P28482 whole entry, looked up): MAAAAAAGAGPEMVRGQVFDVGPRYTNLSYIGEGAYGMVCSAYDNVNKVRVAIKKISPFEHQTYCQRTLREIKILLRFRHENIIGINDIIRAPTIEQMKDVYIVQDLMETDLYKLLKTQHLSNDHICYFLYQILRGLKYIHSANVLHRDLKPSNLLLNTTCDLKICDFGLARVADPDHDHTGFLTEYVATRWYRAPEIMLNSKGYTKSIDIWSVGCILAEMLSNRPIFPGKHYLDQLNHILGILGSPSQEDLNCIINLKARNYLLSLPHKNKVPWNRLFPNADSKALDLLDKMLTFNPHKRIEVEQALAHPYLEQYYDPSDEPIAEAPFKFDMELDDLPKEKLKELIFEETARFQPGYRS
Proto-oncogene tyrosine-protein kinase Src (Homo sapiens), sequence (P12931 2-536 limits assumed): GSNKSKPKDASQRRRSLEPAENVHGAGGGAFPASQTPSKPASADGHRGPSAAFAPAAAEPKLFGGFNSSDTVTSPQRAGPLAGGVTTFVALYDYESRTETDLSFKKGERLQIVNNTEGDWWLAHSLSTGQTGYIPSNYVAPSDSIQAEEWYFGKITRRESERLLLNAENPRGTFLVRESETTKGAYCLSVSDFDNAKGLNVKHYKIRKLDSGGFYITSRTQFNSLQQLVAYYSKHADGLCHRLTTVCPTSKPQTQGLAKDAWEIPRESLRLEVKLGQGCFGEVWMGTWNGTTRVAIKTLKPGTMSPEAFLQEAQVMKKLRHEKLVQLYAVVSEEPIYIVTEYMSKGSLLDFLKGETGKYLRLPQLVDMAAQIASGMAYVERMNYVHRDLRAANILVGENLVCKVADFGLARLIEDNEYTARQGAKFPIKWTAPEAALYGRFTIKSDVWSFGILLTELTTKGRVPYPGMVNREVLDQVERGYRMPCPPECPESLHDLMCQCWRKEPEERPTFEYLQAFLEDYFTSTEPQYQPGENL

Take `O=[N+]([O-])c1ccc2c(c1)S(=O)(=O)C=C2`: the inhibition result in [1] and in series [10] was “Active” in each case. Further, the half-inhibitory concentration (IC50) (as a rule, the concentration that gives 50% inhibition) in the series with MDA-MB-231 [2] is 1810 nM; in the series on HepG2, 3.52 µM; with MCF-10A, 6.11 µM; in the series with L02, 5.2 µM; with MCF7, 3.71 µM; with HCT-116, 2.16 µM. The inhibition entry in series [3], in series [5], in series [6] and in series [12] was “inactive” throughout. Besides, the values for the selectivity ratio in series [4] and in [8] were 1.5 and 3.4, respectively. In addition, the outcome in the series with MDA-MB-231 [7], with MDA-MB-231 [9] and in the series with MDA-MB-231 [11] was Active.

Turning to `CCN(CC)c1ccc2cc(C(=O)N3CCN(C(=O)C4=Cc5ccc(OC)cc5S4(=O)=O)CC3)c(=O)oc2c1`, the IC50 is 1920 nM with MDA-MB-231 [2], 4.21 µM in the series with HepG2, 2.28 µM in the series on MCF7 and 2.3 µM in the series on HCT-116.

Regarding `O=S1(=O)C=Cc2ccccc21`, the IC50 was 27600 nM in the series on MDA-MB-231 [2], 22.9 µM in the series with HepG2, 15.2 µM with MCF7 and 9.33 µM with HCT-116.

For `CCN(CC)c1ccc2cc(C(=O)N3CCN(C(=O)C4=Cc5c([N+](=O)[O-])cccc5S4(=O)=O)CC3)c(=O)oc2c1`, the IC50 with MDA-MB-231 [2] worked out at 3460 nM; with HepG2, 4.91 µM; with MCF7, 4.41 µM; with HCT-116 it was 3.24 µM.

On to `CCN(CC)c1ccc2cc(C(=O)N3CCN(C(=O)C4=Cc5cccc(Br)c5S4(=O)=O)CC3)c(=O)oc2c1`, for which the IC50 in the series with MDA-MB-231 [2] came to 2320 nM; in the series with HepG2, 4.74 µM; in the series on MCF7 it was 3.2 µM; with HCT-116, 2.97 µM.

`CCN(CC)c1ccc2cc(C(=O)N3CCN(C(=O)C4=Cc5ccc(Br)cc5S4(=O)=O)CC3)c(=O)oc2c1`: the IC50 was found to be 2740 nM with MDA-MB-231 [2], 5.52 µM with HepG2, 5.04 µM in the series with MCF7 and 2.79 µM in the series with HCT-116.

Turning to `CCN(CC)c1ccc2cc(C(=O)N3CCN(C(=O)C4=Cc5cc(Br)ccc5S4(=O)=O)CC3)c(=O)oc2c1`, the IC50 in the series with MDA-MB-231 [2] was found to be 2230 nM; in the series with HepG2 it was 5.15 µM; in the series with MCF7, 3.9 µM; with HCT-116 it was 3.83 µM.

In the case of `CCN(CC)c1ccc2cc(C(=O)N3CCN(C(=O)C4=Cc5c(Cl)cccc5S4(=O)=O)CC3)c(=O)oc2c1`, the IC50 in the series on MDA-MB-231 [2] was 2240 nM; in the series with HepG2, 4.49 µM; with MCF7 it was 4.44 µM; in the series with HCT-116, 1.57 µM.

As to `CCN(CC)c1ccc2cc(C(=O)N3CCN(C(=O)C4=Cc5ccc([N+](=O)[O-])cc5S4(=O)=O)CC3)c(=O)oc2c1`, the IC50 in the series on MDA-MB-231 [2] amounted to 5220 nM; in the series on HepG2, 7.09 µM; in the series with MCF7 it was 6.76 µM; in the series on HCT-116 it was 4.95 µM.

For `CCN(CC)c1ccc2cc(C(=O)N3CCN(C(=O)C4=Cc5ccc(F)cc5S4(=O)=O)CC3)c(=O)oc2c1`, the IC50 in the series on MDA-MB-231 [2] amounted to 3200 nM; in the series on HepG2, 4.9 µM; with MCF7, 6.35 µM; with HCT-116 it was 4.26 µM.

As for `CCN(CC)c1ccc2cc(C(=O)N3CCN(C(=O)C4=Cc5cc(Cl)ccc5S4(=O)=O)CC3)c(=O)oc2c1`, the IC50 was determined as 2350 nM with MDA-MB-231 [2], 5.55 µM with HepG2, 4.39 µM in the series with MCF7 and 4.12 µM in the series with HCT-116.

Consider `CCN(CC)c1ccc2cc(C(=O)N3CCN(C(=O)C4=Cc5ccc(Cl)cc5S4(=O)=O)CC3)c(=O)oc2c1`, for which the IC50 with MDA-MB-231 [2] amounted to 2030 nM; with HepG2, 5.29 µM; in the series with MCF7 it was 5.23 µM; in the series on HCT-116, 4.44 µM.

In the case of `CCN(CC)c1ccc2cc(C(=O)N3CCN(C(=O)C4=Cc5cc([N+](=O)[O-])ccc5S4(=O)=O)CC3)c(=O)oc2c1`, the IC50 in the series with MDA-MB-231 [2] was 4920 nM; with HepG2, 7.47 µM; in the series on MCF7, 6.33 µM; in the series on HCT-116, 6.74 µM.

In the case of `CCN(CC)c1ccc2cc(C(=O)N3CCN(C(=O)C4=Cc5ccccc5S4(=O)=O)CC3)c(=O)oc2c1`, the 50% inhibitory concentration (IC50) was determined as 2320 nM in the series on MDA-MB-231 [2], 4.31 µM in the series on HepG2, 3 µM in the series with MCF7 and 3.78 µM in the series with HCT-116.

`CCN(CC)c1ccc2cc(C(=O)N3CCN(C(=O)C4=Cc5c(OC)cccc5S4(=O)=O)CC3)c(=O)oc2c1`: the IC50 turned out to be 1840 nM in the series on MDA-MB-231 [2], 2.94 µM with HepG2, 3.95 µM in the series with MCF7 and 2.02 µM in the series on HCT-116.

Consider `CCN(CC)c1ccc2cc(C(=O)N3CCN(C(=O)C4=Cc5c(F)cccc5S4(=O)=O)CC3)c(=O)oc2c1`, for which the IC50 in the series with MDA-MB-231 [2] amounted to 2130 nM; with HepG2 it was 3.3 µM; with MCF7, 4.04 µM; in the series on HCT-116 it was 2.33 µM.
